Assay results published in US10045974B2, “2-amino-6-(difluoromethyl)-5,5-difluoro-6-phenyl-3,4,5,6-tetrahydropyridines as BACE1 inhibitors” (H. Lundbeck A/S, priority 2014, dated 2018).

Target: BACE1 (Homo sapiens (Human), UniProt P56817)
Experiment: BACE1 efficacy assay (FRET-based, commercial BACE1 kit)
Assay type: biochemical
Settings: test compound 10 μM
Description: The efficacy assay was performed as a FRET-based assay using a commercially available BACE1 kit (Life Technologies, P2985). 2 μl test compound at 10 μM (final concentration) and 15 μl BACE1 enzyme from the kit (final concentration 3 nM) were preincubated for 15 minutes at room temperature before addition of 15 μl of substrate from the kit (250 nM final concentration) and incubated for additional 90 minutes at room temperature. The assay plate was subsequently read in a Pherastar (Ex540/Em590). The enzyme activity observed in presence of test compound were normalized to the enzyme activity observed in presence of buffer and 10 μM (final concentration) of the high affinity BACE1 reference inhibitor (S)-6-[3-Chloro-5-(5-prop-1-ynyl-pyridin-3-yl)-thiophen-2-yl] -2-imino-3,6-dimethyl-tetra-hydropyrimidin-4-one, respectively. The efficacy of the test compounds was evaluated at 10 μM (final concentration) and defined as the percent inhibition of the enzyme activity using the equation %inhibition=100% -normalized enzyme activity in percent.

Chain of BACE1 (P56817 46-501): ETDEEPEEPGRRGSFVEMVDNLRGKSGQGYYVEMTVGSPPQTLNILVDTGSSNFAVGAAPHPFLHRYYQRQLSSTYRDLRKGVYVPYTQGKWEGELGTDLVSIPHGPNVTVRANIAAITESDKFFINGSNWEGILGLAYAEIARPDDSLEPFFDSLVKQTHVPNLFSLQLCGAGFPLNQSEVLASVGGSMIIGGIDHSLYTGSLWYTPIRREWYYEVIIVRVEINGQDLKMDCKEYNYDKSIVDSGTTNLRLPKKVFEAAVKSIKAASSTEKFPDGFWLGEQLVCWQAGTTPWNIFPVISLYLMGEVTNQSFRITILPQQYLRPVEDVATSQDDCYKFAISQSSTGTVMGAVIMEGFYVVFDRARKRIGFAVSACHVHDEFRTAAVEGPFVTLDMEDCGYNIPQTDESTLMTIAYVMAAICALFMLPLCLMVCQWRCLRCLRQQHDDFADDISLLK

inhibition at 10 µM [%]	Compound
100	NC1=N[C@@](c2cc(NC(=O)c3ccc(F)cn3)ccc2F)(C(F)F)C(F)(F)CC1 [Compound 2, (S)-N-(3-(6-amino-2-(difluoromethyl)-3,3-difluoro-2,3,4,5-tetrahydropyridin-2-yl)-4-fluorophenyl)-5-fluoropicolinamide]
104	Cc1nc(C(=O)Nc2ccc(F)c([C@@]3(C(F)F)N=C(N)CCC3(F)F)c2)co1 [Compound 4, (S)-N-(3-(6-amino-2-(difluoromethyl)-3,3-difluoro-2,3,4,5-tetrahydropyridin-2-yl)-4-fluorophenyl)-2-methyloxazole-4-carboxamide]
103	COc1cnc(C(=O)Nc2ccc(F)c([C@@]3(C(F)F)N=C(N)CCC3(F)F)c2)nc1 [Compound 9, (S)-N-(3-(6-amino-2-(difluoromethyl)-3,3-difluoro-2,3,4,5-tetrahydropyridin-2-yl)-4-fluorophenyl)-5-methoxypyrimidine-2-carboxamide]
108	[2H]C([2H])([2H])Oc1cnc(C(=O)Nc2ccc(F)c([C@@]3(C(F)F)N=C(N)CCC3(F)F)c2)cn1 [Compound 14, (S)-N-(3-(6-amino-2-(difluoromethyl)-3,3-difluoro-2,3,4,5-tetrahydropyridin-2-yl)-4-fluorophenyl)-5-(methoxy-d3)pyrazine-2-carboxamide]
106	NC1=N[C@@](c2cc(NC(=O)c3ccc(Cl)cn3)ccc2F)(C(F)F)C(F)(F)CC1 [Compound 1, (S)-N-(3-(6-amino-2-(difluoromethyl)-3,3-difluoro-2,3,4,5-tetrahydropyridin-2-yl)-4-fluorophenyl)-5-chloropicolinamide]
103	[2H]C([2H])([2H])Oc1ccc(C(=O)Nc2ccc(F)c([C@@]3(C(F)F)N=C(N)CCC3(F)F)c2)nc1 [Compound 13, (S)-N-(3-(6-amino-2-(difluoromethyl)-3,3-difluoro-2,3,4,5-tetrahydropyridin-2-yl)-4-fluorophenyl)-5-(methoxy-d3)picolinamide]
103	NC1=N[C@@](c2cc(NC(=O)c3cnc(C(F)F)cn3)ccc2F)(C(F)F)C(F)(F)CC1 [Compound 6, (S)-N-(3-(6-amino-2-(difluoromethyl)-3,3-difluoro-2,3 ,4,5-tetrahydropyridin-2-yl)-4-fluorophenyl)-5-(difluoromethyl)pyrazine-2-carboxamide]
106	COc1cnc(C(=O)Nc2ccc(F)c([C@@]3(C(F)F)N=C(N)CCC3(F)F)c2)c(C)n1 [Compound 10, (S)-N-(3-(6-amino-2-(difluoromethyl)-3,3-difluoro-2,3,4,5-tetrahydropyridin-2-yl)-4-fluorophenyl)-5-methoxy-3-methylpyrazine-2-carboxamide]
101	COc1ccc(C(=O)Nc2ccc(F)c([C@@]3(C(F)F)N=C(N)CCC3(F)F)c2)nc1 [Compound 5, (S)-N-(3-(6-amino-2-(difluoromethyl)-3,3-difluoro-2,3,4,5-tetrahydropyridin-2-yl)-4-fluorophenyl)-5-methoxypicolinamide]
102	Cc1csc(C(=O)Nc2ccc(F)c([C@@]3(C(F)F)N=C(N)CCC3(F)F)c2)n1 [Compound 8, (S)-N-(3-(6-amino-2-(difluoromethyl)-3,3-difluoro-2,3,4,5-tetrahydropyridin-2-yl)-4-fluoro-phenyl)-4-methylthiazole-2-carboxamide]
103	COc1cnc(C(=O)Nc2ccc(F)c([C@@]3(C(F)F)N=C(N)CCC3(F)F)c2)cn1 [Compound 3]
